Results: patent US12534469B2 (CHILDREN'S HOSPITAL MEDICAL CENTER, priority 2020, dated 2026)

Assays:
FLT3 = target: T1, FLT3 (Homo sapiens, UniProt P36888); assay: RBC HotSpot Kinase Assay, FLT3; format: biochemical
T1 construct: purchased Reaction Biology (RBC HotSpot Kinase Assay)
T1 sequence (P36888 564-958 limits assumed): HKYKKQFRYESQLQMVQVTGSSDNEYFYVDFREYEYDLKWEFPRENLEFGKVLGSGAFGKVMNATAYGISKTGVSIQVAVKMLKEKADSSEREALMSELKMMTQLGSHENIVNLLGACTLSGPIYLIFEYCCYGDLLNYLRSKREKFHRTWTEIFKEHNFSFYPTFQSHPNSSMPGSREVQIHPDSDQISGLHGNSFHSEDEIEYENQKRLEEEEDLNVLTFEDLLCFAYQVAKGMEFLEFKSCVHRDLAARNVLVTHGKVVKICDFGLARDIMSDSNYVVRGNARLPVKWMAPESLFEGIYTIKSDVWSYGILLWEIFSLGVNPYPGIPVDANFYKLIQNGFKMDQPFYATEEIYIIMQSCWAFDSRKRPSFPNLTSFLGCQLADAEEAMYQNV
Procedure, shortened: (§1)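 Radiometric filter-binding (HotSpot) activity assay on isolated recombinant kinase, possibly truncated or catalytic domain only, in 20 mM Hepes pH 7.5, 10 mM MgCl2, 1 mM EGTA, 2 mM DTT, 1% DMSO. Compound preincubated 20 min with kinase and substrate, then ^33P-ATP added. Reaction 2 h at room temperature, read by P81 filter binding.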

IRAK1 = target: T2, IRAK1 (Homo sapiens, UniProt P51617); assay: RBC HotSpot Kinase Assay, IRAK1; format: biochemical
T2 construct: purchased Reaction Biology (RBC HotSpot Kinase Assay)
T2 sequence (P51617 whole entry): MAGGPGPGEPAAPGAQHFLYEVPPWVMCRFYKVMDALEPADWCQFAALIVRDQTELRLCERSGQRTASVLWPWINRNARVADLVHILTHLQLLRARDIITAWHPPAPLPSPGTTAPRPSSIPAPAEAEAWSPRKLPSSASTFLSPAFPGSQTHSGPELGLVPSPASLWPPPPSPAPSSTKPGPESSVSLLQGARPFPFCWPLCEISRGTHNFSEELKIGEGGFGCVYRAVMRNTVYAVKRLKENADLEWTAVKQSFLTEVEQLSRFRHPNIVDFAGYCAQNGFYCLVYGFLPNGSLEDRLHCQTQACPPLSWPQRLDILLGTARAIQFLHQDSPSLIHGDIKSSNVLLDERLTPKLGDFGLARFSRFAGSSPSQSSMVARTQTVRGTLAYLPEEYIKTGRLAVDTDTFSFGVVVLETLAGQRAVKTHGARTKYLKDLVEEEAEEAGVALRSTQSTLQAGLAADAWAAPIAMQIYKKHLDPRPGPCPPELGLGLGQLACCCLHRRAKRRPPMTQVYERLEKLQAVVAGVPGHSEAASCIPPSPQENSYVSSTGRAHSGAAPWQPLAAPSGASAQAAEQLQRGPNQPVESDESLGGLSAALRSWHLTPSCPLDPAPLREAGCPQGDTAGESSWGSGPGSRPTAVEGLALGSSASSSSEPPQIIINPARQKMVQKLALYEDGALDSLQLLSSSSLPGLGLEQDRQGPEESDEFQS
Procedure, shortened: as §1

IRAK4 = target: T3, IRAK4 (Homo sapiens, UniProt Q9NWZ3); assay: RBC HotSpot Kinase Assay, IRAK4; format: biochemical; design: purchased Reaction Biology (RBC HotSpot Kinase Assay)
T3 sequence (Q9NWZ3 1-460): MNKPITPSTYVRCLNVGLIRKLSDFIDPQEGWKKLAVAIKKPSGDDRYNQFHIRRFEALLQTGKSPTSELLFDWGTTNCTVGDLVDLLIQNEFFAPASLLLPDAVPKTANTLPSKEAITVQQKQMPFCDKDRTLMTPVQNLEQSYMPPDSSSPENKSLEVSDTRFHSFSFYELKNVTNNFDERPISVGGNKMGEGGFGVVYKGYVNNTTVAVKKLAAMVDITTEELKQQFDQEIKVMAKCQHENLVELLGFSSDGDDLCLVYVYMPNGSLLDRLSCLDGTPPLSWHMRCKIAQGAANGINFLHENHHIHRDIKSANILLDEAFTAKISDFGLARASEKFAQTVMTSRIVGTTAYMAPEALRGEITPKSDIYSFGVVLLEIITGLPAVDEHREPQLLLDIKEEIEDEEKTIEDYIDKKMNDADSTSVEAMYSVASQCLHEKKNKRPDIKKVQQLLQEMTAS
Procedure, shortened: as §1

MOLM14 D835Y cells = assay: MOLM14 D835Y cell viability assay (Cell Titer Glo); format: cell-based
Method: (§2) Both cell lines have activated FLT3 receptors, each of which carry additional resistance mutations in the kinase domain (D835Y and F691L, respectively).
(§3) MOLM14 D835Y and MOLM14 F691L cells were grown in RPMI-1640 media supplemented with 20% fetal bovine serum (FBS). For viability/cytotoxicity assessments, cells were seeded into 1536-well white polystyrene tissue culture-treated Greiner plates using a Multidrop Combi dispenser (ThermoFisher), in final volume 5 μL of growth media per well, at a density of 1000 cells per well. After cell addition, 23 nL of test compound were transferred into individual wells (22 doses tested for each test compound, with a 1:2 dilution series starting at 10 μM) via a 1536 pin-tool. Bortezomib (final concentration 2.3 μM) was used as a positive control for cell cytotoxicity. Plates were incubated for 48 hours at standard incubator conditions covered by a stainless steel gasketed lid to prevent evaporation. 48 hours post compound addition, 3 μL of Cell Titer Glo (Promega) were added to each well and plates were incubated at room temperature for 15 minutes with the stainless-steel lid in place. Luminescence readings were taken using a Viewlux imager (PerkinElmer) with a 2 second exposure time per plate.

MOLM14 F691L cells = assay: MOLM14 F691L cell viability assay (Cell Titer Glo); format: cell-based
Method: as §2, §3

Structure (SMILES) | IC50 (FLT3) [nM] | IC50 (IRAK1) [nM] | IC50 (IRAK4) [nM] | IC50 (MOLM14 D835Y cells; 48 hours) [nM] | IC50 (MOLM14 F691L cells; 48 hours) [nM] | IC50 (MOLM14 D835Y cells; Homo sapiens, MOLM-14, 48 h) [nM] | IC50 (MOLM14 F691L cells; Homo sapiens, MOLM-14, 48 h) [nM]
COc1cc2ncc(-c3cccc(N[C@@H]4CCCNC4)n3)n2nc1C(C)(O)C(F)(F)F (single isomer, unassigned) [Compound 131] | < 0.5 | 8200 | 424 | 69 | 545 |  | 
COc1cc2ncc(-c3cccc(N[C@@H]4CCCNC4)n3)n2nc1C(C)(O)C(F)(F)F (single isomer, unassigned) [Compound 132] | 5 | > 10000 | 1770 | 486 | 3440 |  | 
Cn1cc(-c2ccc3ncc(-c4cccc(N[C@H]5CNC[C@@H]5F)n4)n3n2)cn1 [Compound 1, N-((3S,4S)-4-fluoropyrrolidin-3-yl)-6-(6-(1-methyl-1H-pyrazol-4-yl)imidazo[1,2-b]pyridazin-3-yl)pyridin-2-amine] | 0.6 | 331 | 13 |  |  | 60 | 1680
COc1cc2ncc(-c3cccc(N[C@@H]4CCNC4)n3)n2nc1C1(C(F)(F)F)CC1 [Compound 81, (R)-6-(7-methoxy-6-(1-(trifluoromethyl)cyclopropyl)imidazo[1,2-b]pyridazin-3-yl)-N-(pyrrolidin-3-yl)pyridin-2-amine] | 2 | 954 | 25 |  |  | 591 | 
COc1cc2ncc(-c3cc(F)cc(N[C@@H]4CCCNC4)n3)n2nc1C1CC1 [Compound 104, (R)-6-(6-cyclopropyl-7-methoxyimidazo[1,2-b]pyridazin-3-yl)-4-fluoro-N-(piperidin-3-yl)pyridin-2-amine] | < 0.5 | 1340 | 45 |  |  | 193 | 1150
F[C@H]1CNC[C@@H]1Nc1cccc(-c2cnc3cccnn23)n1 [Compound 109, N-((3S,4S)-4-fluoropyrrolidin-3-yl)-6-(imidazo[1,2-b]pyridazin-3-yl)pyridin-2-amine] | 9 | > 10000 | 399 |  |  | 968 | 
F[C@H]1CNC[C@@H]1Nc1cccc(-c2cnc3cc(Cl)cnn23)n1 [Compound 110, 6-(7-chloroimidazo[1,2-b]pyridazin-3-yl)-N-((3S,4S)-4-fluoropyrrolidin-3-yl)pyridin-2-amine] | 6 | 3710 | 190 |  |  | 591 | 
F[C@H]1CNC[C@@H]1Nc1cccc(-c2cnc3cc(C4CC4)cnn23)n1 [Compound 111, 6-(7-cyclopropylimidazo[1,2-b]pyridazin-3-yl)-N-((3S,4S)-4-fluoropyrrolidin-3-yl)pyridin-2-amine] | 4 | 774 | 131 |  |  | 1010 | 
FC(F)COc1cnn2c(-c3cccc(N[C@H]4CNC[C@@H]4F)n3)cnc2c1 [Compound 114, 6-(7-(2,2-difluoroethoxy)imidazo[1,2-b]pyridazin-3-yl)-N-((3S,4S)-4-fluoropyrrolidin-3-yl)pyridin-2-amine] | 3 | 3470 | 94 |  |  | 326 | 

The remaining lines, values ahead:

IC50 (FLT3) [nM] | IC50 (IRAK1) [nM] | IC50 (IRAK4) [nM] | IC50 (MOLM14 D835Y cells; 48 hours) [nM] | IC50 (MOLM14 F691L cells; 48 hours) [nM] | IC50 (MOLM14 D835Y cells; Homo sapiens, MOLM-14, 48 h) [nM] | IC50 (MOLM14 F691L cells; Homo sapiens, MOLM-14, 48 h) [nM] | Structure (SMILES)
< 0.5 | 8640 | 183 | 244 | 1720 |  |  | COc1cc2ncc(-c3cccc(N[C@H]4CNCC[C@@H]4F)n3)n2nc1C(C)(O)C(F)(F)F (single isomer, unassigned; fast-eluting) [Compound 134]
< 0.5 | > 10000 | 169 | 386 | 4330 |  |  | COc1cc2ncc(-c3cccc(N[C@H]4CNC[C@@H]4F)n3)n2nc1C(C)(O)C(F)(F)F (single isomer, unassigned; slow-eluting) [Compound 135]
< 0.5 | 3140 | 10 | 31 | 344 |  |  | COc1cc2ncc(-c3cccc(N[C@H]4CNCC[C@@H]4F)n3)n2nc1C(C)(O)C(F)(F)F (single isomer, unassigned; slow-eluting) [Compound 136]
< 0.5 | 3 | < 0.5 |  |  | 333 |  | F[C@H]1CNCC[C@@H]1Nc1cccc(-c2cnc3ccc(-c4cnn5ccccc45)nn23)n1 [Compound 20, N-((3S,4S)-3-fluoropiperidin-4-yl)-6-(6-(pyrazolo[1,5-a]pyridin-3-yl)imidazo[1,2-b]pyridazin-3-yl)pyridin-2-amine]
1 | 595 | 18 |  |  | 357 |  | COc1cc2ncc(-c3cccc(N[C@H]4CNC[C@@H]4F)n3)n2nc1C1(C(F)(F)F)CC1 [Compound 82, N-((3S,4S)-4-fluoropyrrolidin-3-yl)-6-(7-methoxy-6-(1-(trifluoromethyl)cyclopropyl)imidazo[1,2-b]pyridazin-3-yl)pyridin-2-amine]
0.8 | 3670 | 25 |  |  | 259 |  | COc1cc2ncc(-c3cccc(N[C@H]4CNC[C@@H]4C)n3)n2nc1C1(C(F)(F)F)CC1 [Compound 83, 6-(7-methoxy-6-(1-(trifluoromethyl)cyclopropyl)imidazo[1,2-b]pyridazin-3-yl)-N-((3R,4S)-4-methylpyrrolidin-3-yl)pyridin-2-amine]
1 | 536 | 83 |  |  | 179 |  | COc1cc2ncc(-c3cccc(N[C@@H]4CCCNC4)n3)n2nc1C1(C(F)(F)F)CC1 [Compound 84, (R)-6-(7-methoxy-6-(1-(trifluoromethyl)cyclopropyl)imidazo[1,2-b]pyridazin-3-yl)-N-(piperidin-3-yl)pyridin-2-amine]
< 0.5 | 1380 | < 0.5 |  |  | 20 |  | COc1cc2ncc(-c3cccc(N[C@H]4CNCC45CC5)n3)n2nc1C1CC1 [Compound 100, (R)-N-(6-(6-cyclopropyl-7-methoxyimidazo[1,2-b]pyridazin-3-yl)pyridin-2-yl)-5-azaspiro[2.4]heptan-7-amine]
< 0.5 | 2320 | 11 |  |  |  | 596 | COc1cc2ncc(-c3cccc(N[C@@H]4CCCNC4)n3)n2nc1C1CC1 [Compound 101]
< 0.5 | 218 | 16 |  |  | 205 | 1450 | COc1cc2ncc(-c3cc(F)cc(N[C@H]4CNC[C@@H]4F)n3)n2nc1C1CC1 [Compound 103, 6-(6-cyclopropyl-7-methoxyimidazo[1,2-b]pyridazin-3-yl)-4-fluoro-N-((3S,4S)-4-fluoropyrrolidin-3-yl)pyridin-2-amine]
< 0.5 | 1140 |  |  |  | 154 | 2170 | COc1cc2ncc(-c3cccc(N[C@H]4CNCC[C@@H]4F)n3)n2nc1-c1cnn(C(F)F)c1 [Compound 129, 6-(6-(1-(difluoromethyl)-1H-pyrazol-4-yl)-7-methoxyimidazo[1,2-b]pyridazin-3-yl)-N-((3S,4S)-4-fluoropiperidin-3-yl)pyridin-2-amine]
< 0.5 | 734 |  | 137 | 1370 |  |  | COc1cc2ncc(-c3cccc(N[C@H]4CNCC[C@@H]4F)n3)n2nc1-c1cnn(C(F)F)c1 [Compound 130, 6-(6-(1-(difluoromethyl)-1H-pyrazol-4-yl)-7-methoxyimidazo[1,2-b]pyridazin-3-yl)-N-((3S,4S)-4-fluoropiperidin-3-yl)pyridin-2-amine]
